In patent publication US8881823B2, “Environmentally friendly low temperature breaker systems and related methods” (Halliburton Energy Services, Inc., priority 2011, dated 2014):

Tests used:
[1] = Biodegradability, OECD 301 D Closed Bottle Test
From the text: The same protocol was used to test EDTA (“DISSOLVINE AM3-40” available from AkzoNobel Corporate) and sodium acetate.

[2] = Dissolution and miscibility tests in sodium bromide brines; format: physicochemical; conditions: for % Complexed or Dissolved / Final Weight of BARACARB 5: 2.5 g BARACARB 5, 150° F., 16 hours
Method: Dissolution and miscibility tests were also performed on 20% GLDA in sodium bromide brines. 20% GLDA was mixed in various concentration of NaBr in order to evaluate the effect of brine concentration on the dissolving capacity of GLDA. Without being limited by theory, it is believed that reducing the amount of available free water in the brine reduced the dissociation rate of the acid functionalities on the breaker, which in turn reduced the amount of complexed calcium ions. These tests were performed in 20% v/v breaker systems in 10.2 lb/gal KCl/NaBr brine or 12.5 lb/gal NaBr brine. In each case, 2.5 g of BARACARB 5 calcium carbonate was added to the breaker systems at 150° F. for 16 hours. For comparison, a mineral acid breaker system was also tested.

[3] = Calcite dissolving capacity of breaker systems; format: physicochemical; conditions: 2.5 g BARACARB 5 in 50 mL test fluid, one hour
Method: The calcite dissolving capacity of each breaker system was determined in the following manner. A known amount of a technical grade calcium carbonate (commercially available from Halliburton under the tradename “BARACARB 5”) was dried in an oven for 2 hours. […] The solution was subsequently filtered with a 1 micron fiber glass filter paper.

Alga = conditions: Alga, in vivo, 72 h
Method: (§1) GLDA was also tested for its eco-toxicological effect on various environmental subjects. In particular, the active toxicity of GLDA was measured on various organisms following OECD 201, 202 and 203 protocols.

[4] = set-up: species or system Alga; conditions: alga, in vivo
Method: as §1

[5] = 20% v/v breaker in 10.2 lb/gal KCl/NaBr
[6] = 20% v/v breaker in 12.5 lb/gal NaBr

Structure (SMILES): O=C(O)CC[C@@H](C(=O)O)N(CC(=O)O)CC(=O)O [GLDA, L-glutamic acid N,N-diacetic acid]
- Biodegradability [1]: Easy
- biodegradability (in words) [1]: readily biodegradable
- % Complexed or Dissolved [2, 5]: 49%
- Final Weight of BARACARB 5 [2, 5]: 1.27 g
- % Complexed or Dissolved [2, 6]: 29%
- Final Weight of BARACARB 5 [2, 6]: 1.78 g
- carbonate dissolved (FIG. 2) ([2]; higher brine concentration): less than 45%
- carbonate dissolved (FIG. 2) ([2]; lower brine concentration): more than 80%
- % Carbonate Complexed or Dissolved [3]: 19.6%
- Final Weight of BARACARB 5, g [3]: 2.01 g
- 72-h NOEC (Alga): NOEC ≧ 100 mg/l
- EC50 at 72 h [4]: > 100 µg/mL
